Consider 3 compounds from PMC3404088, “Development of a Small D-Enantiomeric Alzheimer’s Amyloid-β Binding Peptide Ligand for Future In Vivo Imaging Applications” (PLoS ONE, 2012).

Data set [1] has as its target T1, Aβ1–42 fibrils (Homo sapiens, UniProt P05067).
T1 construct: Aβ1–42 was dissolved in hexafluoroisopropanol (HFIP)
Put plainly: SPR single cycle experiments (Biacore T100), heterogeneous ligand model. Further details: Rmax1 / Rmax2 / k off2: unit not given here. Conditions: PBS pH 7.4, 25°C, 30 µl/min. The data set is classed as binding. The protocol:
Aβ1–42 fibrils were prepared as described above. Thereafter, the sample was centrifuged for 10 min at 16000×g, the supernatant discarded and this procedure repeated for 3 times. Formation of fibrils was confirmed by a standard Thioflavin-T fluorescence assay. Aβ1–42 fibrils were covalently immobilized on a CM5 sensor chip via amine coupling. Prior to immobilization of Aβ1–42 fibrils the sample was centrifuged and fibrils resuspended in 10 mM sodium acetate buffer pH 4.0. Flow cell sensor surfaces were activated with a freshly prepared solution of 0.2 M 1-ethyl–3-(3-dimethylaminopropyl)-carbodiimide (EDC) and 0.05 M N-hydroxysuccinimide (NHS) at a constant flow rate of 10 µl/min for 420 s. Aβ1–42 fibrils (∼ 110 µM monomeric Aβ1–42) were injected for 600 s with a flow rate of 10 µl/min. Deactivation of the surface was performed by injection of 1 M ethanolamine-HCl pH 8.5 at the same flow rate and duration as in the activation step. In the reference cells the deactivation step was performed directly after the activation step. All SPR experiments were performed on a Biacore T100 system with series S CM5 sensor chips at 25°C. The system was run with the Biacore T100 Control Software Version 1.1.1. PBS (10 mM sodium phosphate buffer pH 7.4, 137 mM NaCl, 2.7 mM KCl) was chosen as running buffer (as previously during fibril formation) in order to minimize alterations of fibril organization. All buffers were sterile filtered (0.22 µm). After each docking of a sensor chip the detector was normalized with BIAnormalizing solution (70% glycerol, GE Healthcare) to compensate for slight differences in detector responses of individual sensor chips. For all interaction analyses the Type 1 reagent rack was used. Siliconized sample vials were used with their corresponding rubber caps (Type 2, GE Healthcare) to minimize evaporation effects. Throughout all runs the flow rate was set to 30 µl/min. All interaction studies were performed in single-cycle mode. Here, five different concentrations of analyte were passed through a reference cell and subsequently through flow cells with immobilized ligand within the same binding cycle for 60 seconds, starting with the lowest concentration. Successive injections were performed in the order of increasing concentrations. Each following concentration was a fivefold increase of the previous. The lowest analyte concentration was chosen to be 100 nM and therefore the following were 500, 2500, 12500 and 62500 nM. Biacore data were evaluated using BiaEvaluation 4.1.1 (GE Healthcare) and Biacore T100 Evaluation Software (GE Healthcare). Obtained binding data with compounds were double referenced. This was achieved by collecting the data in dual-channel mode with a reference flow cell connected upstream of the flow cell with immobilized Aβ1–42 fibrils and the subtraction of the obtained binding responses with a blank buffer injection (PBS).
(SPR reads the build-up and loss of mass on a sensor chip optically.)

Data set [2] in a line: Analysis of ACI-80 stability: N-terminal glutamine vs pyroglutamate content by HPLC/ESI-MS. The following applies: solid, freshly synthesized and untreated, HPLC/ESI-MS. The data set is classed as physicochemical. Here is the method:
In solution, N-terminal glutamine peptides such as D1 are prone to convert into N-terminal pyroglutamate species: Gln-SHYRHISPAQV → Pyr-SHYRHISPAQV. Therefore, the stability of solid ACI-80, solid ACI-80-Kϕ (ϕ: fluorescein isothiocyanate, covalently linked to the peptide via a lysine (K)) and [^127I]-ACI-80 in solution was investigated by JPT Peptide Technologies GmbH, Berlin, Germany using HPLC/ESI-MS whereby the relative content of N-terminal Gln peptide and N-terminal Pyr peptide was assessed.
An important observation during initial compound stability characterization experiments was the partial conversion of the N-terminal glutamine of [^127I]-ACI-80 into pyro-glutamate. It is known that peptides with an N-terminal glutamine are prone to conversion of this residue into a pyroglutamate. Therefore, the composition of freshly synthesized and untreated ACI-80 and ACI-80-Kϕ as well as [^127I]-ACI-80 after iodination were investigated. […] It was observed that freshly synthesized ACI-80 and ACI-80-Kϕ contained only minor fractions of pyroglutamic acid while about one third of [^127I]-ACI-80 in solution already converted into N-terminal pyroglutamate species.

Another data set addresses T2, Aβ1–42 monomers (Homo sapiens, UniProt P05067).
T2 construct: Aβ1–42 peptide film was prepared from lyophilized powder (Bachem); purchased Bachem
The experiment in a line: ELISA, compound binding to Aβ1–42 peptide film (predominantly monomers). Conditions: 10 µg/ml compound; for binding value, binding Aβ1–42 monomers: optical density after pNPP incubation. The protocol: (§1) Aβ1–42 peptide film was prepared from lyophilized powder (Bachem). The powder was reconstituted in HFIP to a final concentration of 1 mM, sonicated for 15 min at room temperature (RT), agitated overnight (ON), and aliquoted into non-siliconized microcentrifuge tubes (12 µl corresponding to 55 µg). The HFIP was evaporated under a stream of argon. The resulting peptide film was vacuum dried for 10 min and stored at -80°C. For direct use as peptide film, an aliquot of Aβ1–42 peptide film was reconstituted with 0.54% dimethylsulphoxide (DMSO) in phosphate buffered saline (PBS) to obtain a final concentration of 10 µg/ml and then used for the ELISA as described below. To prepare fibrils, 55 µg aliquot of peptide film was dissolved in 55 µl of 50 mM Tris-HCl, pH 7.4 and incubated at 37°C for five days. Next, the sample was centrifuged (10’000 rpm for 5 min) and the pellet was diluted in 50 mM Tris-HCl, pH 7.4.
(§2) Aβ1–42 peptide preparations were diluted in 0.05 M bicarbonate-carbonate buffer pH 9.6, to the final concentration of 10 µg/ml and coated onto ELISA plates (MaxiSorp, Nunc). After blocking (PBS; 0.05% Tween; 1% BSA), plates were incubated with 2- or 3-fold dilutions of D-compounds (starting concentration: 10 µg/ml) and incubated for 2 h at 37°C. Plates were then washed and incubated for 2 h at 37°C with the detection antibody Rabbit-a-fluorescein isothiocyanate-AP (Sigma; 1∶10’000 dilution) followed by the incubation for 2.5 h at room temperature (RT) with 1 mg/ml of phosphatase substrate (pNPP, Sigma). The absorbance signal was read at 405 nm wavelength using a Tecan plate reader (Tecan Group Lt, Männedorf, Switzerland).
(§3) ELISA plates (MaxiSorp, Nunc) were coated with anti-Aβ antibody 6E10 (Covance) at a concentration of 5 µg/ml. Either monomeric Aβ1–42 peptide film (mainly monomeric) or Aβ1–42 fibrils, which were prepared as described above, were diluted in PBS to the final concentration 10 µg/ml and mixed with 10-fold dilutions of D-peptide compounds in Eppendorf tubes (starting concentration of D-peptide compounds: 10 µg/ml). The tubes were incubated for 2 h at 37°C. Next, samples were distributed onto the ELISA plate and kept for 2 h at 37°C. Plates were washed and incubated for 2 h at 37°C with the detection antibody Rabbit-a-fluorescein isothiocyanate-AP (Sigma; 1∶10′000 dilution) following the incubation overnight (ON) at RT with 1 mg/ml of phosphatase substrate (pNPP, Sigma). The absorbance signal was read at 405 nm wavelength using the Tecan plate reader (Tecan Group Ltd, Männedorf, Switzerland).
(§4) To verify the SPR results, ELISA was employed to assay the interaction of the ACI-80 derivatives ACI-80-Kϕ, ACI-81-Kϕ, ACI-82-Kϕ, ACI-83-Kϕ, ACI-84-Kϕ, ACI-85-Kϕ, ACI-86-Kϕ, ACI-87-Kϕ, [^19F]-ACI-87-Kϕ, ACI-88-Kϕ, [^19F]-ACI-88-Kϕ, ACI-89-Kϕ, [^19F]-ACI-89-Kϕ) with Aβ1–42 fibrils and Aβ peptide film in solution containing mostly monomers and smaller oligomers (Table 4). To avoid any bias by possible conformational influences the ELISA has been carried out in two versions, once with immobilized antibody and once with immobilized Aβ1–42 as described in the methods section. Both assays yielded similar results and confirmed each other. […] Panels A and B in Figure 2 show the results for binding to Aβ1–42 fibrils and panels C and D in Figure 2 show the results for binding to freshly prepared Aβ1–42 peptide film, which contains mostly monomeric Aβ. In Table 4, the performance of the peptides is expressed relative to that of ACI-80-Kϕ.
(ELISA stands for enzyme-linked immunosorbent assay.)

Data set [3] concerns the target T1, Aβ1–42 fibrils. The experiment in a line: ELISA, compound binding to Aβ1–42 fibrils. Conditions: for binding value, binding Aβ1–42 fibrils: optical density after pNPP incubation. The protocol: as §1, §2, §3, §4
Data set [4] concerns the target T3, Aβ plaques in brain sections of transgenic APP (V717I) x PS1 (A246E) mice (Homo sapiens, UniProt P05067).
T3 construct: triple image overlay of respective stains reveal that the ϕ-compounds identify plaques; from tissue; host or cells: brain cryosections of APP (V717I) x PS1 (A246E) transgenic mice
The experiment in a line: Ex vivo staining of mouse brain slices by FITC labeled compounds. Here is the method:
In vitro tissue section staining was performed according to previously described protocols with slight modifications. Mouse brains were obtained from male transgenic (tg) APP (London mutation V717l) x PS1 (A246E) mice aged 13–21 months and from female wild type (wt) mice aged 9–10 months. The mice were anesthetized and transcardially perfused with saline. The brains were removed and snap frozen. 10 µm thick sagittal cryostat sections through the whole mouse brain were produced and mounted onto glass slides. ϕ-labeled compounds were applied to investigate binding. Thus, the slides were thawed, washed in PBS and fixed in 4% paraformaldehyde (20 min at RT) just before incubation with ϕ-labeled compounds. One series of sections was treated only with fluorescent compounds (0.01 mg/ml, incubation time 2 h) while another series of sections were incubated with anti-Aβ antibody 6E10 at 1∶500 dilution (SIG-39320, Covance; final antibody concentration was 2 µg/ml) in addition to ϕ-labeled compounds (0.01 mg/ml). The slices were washed in PBS. The sections incubated with ϕ-labeled compound and 6E10 antibody were further incubated for 2 h at RT with Goat-anti-Mouse IgG1– AlexaFluor 555 (A21127, Invitrogen, 1∶1000 dilution) and washed with PBS. Finally, all sections were counterstained with 4’–6-Diamidino-2-phenylindole (DAPI, 32670, Sigma, incubation 5 min at RT) for the visualization of cell nuclei. The slides were mounted using Prolong Gold Antifade mounting medium (P36930, Invitrogen) and coverslipped.
The tissues were analyzed using a fluorescent Zeiss Axioscope 2 Plus microscope using the AxioVision 4 image analysis software.
A further series of slices was stained using a primary anti-fluorescein isothiocyanate antibody combined with alkaline phosphatase reaction for visualization of ϕ-labeled peptides. Briefly, the sections were treated with blocking solution (10% normal goat serum (NGS), 0.25% Triton X-100 in PBS for 1 h at RT) and incubated with primary antibody (rabbit-anti-FITC; Invitrogen) at a dilution of 1∶500. The sections were then washed and incubated for 2 h at RT with the secondary antibody goat-anti-rabbit-alkaline phosphatase (Sigma) at a dilution of 1∶100. After washing, the slides were incubated with BCIP/NBT substrate (Sigma) for 3 min, washed, dehydrated and mounted using Eukitt mounting medium.

The mark [5] stands for this setting: average of two or three experiments.
The mark [6] stands for this setting: 10 µg/ml compound, average of two or three experiments.

Square brackets hold non-standard residues; d marks the D form. Peptide text beside a SMILES is read from it. * marks the point of attachment. 5FAM = O=C1OC2(c3ccc(O)cc3Oc3cc(O)ccc32)c2ccc(C(=O)*)cc21 Where only a bound is given, the exact number is not on record here.

Take `CC[C@@H](C)[C@@H](NC(=O)[C@@H](Cc1c[nH]cn1)NC(=O)[C@@H](CCCNC(=N)N)NC(=O)[C@@H](Cc1ccc(O)cc1)NC(=O)[C@@H](Cc1c[nH]cn1)NC(=O)[C@@H](CO)NC(=O)[C@H](N)CCC(N)=O)C(=O)N[C@H](CO)C(=O)N1CCC[C@@H]1C(=O)N[C@H](C)C(=O)N[C@H](CCC(N)=O)C(=O)N[C@@H](C(=O)N[C@H](CCCCNC(=O)c1ccc2c(c1)C(=O)OC21c2ccc(O)cc2Oc2cc(O)ccc21)C(=O)O)C(C)C` [ACI-80-Kϕ] (H-[dQ][dS][dH][dY][dR][dH][dI][dS][dP][dA][dQ][dV][dK](5FAM)-OH; C-terminus assumed): on Aβ1–42 fibrils [1], the Rmax2 is reported as 43.7, the “k off1” value was 0.0252, the “k off2” value stood at 1.58 and the “k on1” value is listed as 469. In addition, the “k on2” value at Aβ1–42 fibrils [1] turned out to be 1.37e4. Besides, the Rmax1 on Aβ1–42 fibrils [1] (global fit of three lowest responding concentrations) was found to be 12.2. For the same compound, the “Identified amino acid at the N-terminal position: glutamine” value in data set [2] (relative content of N-terminal Gln peptide) is recorded as greater than 94.4%. In data set [2] (relative content of N-terminal Pyr peptide), the “Identified amino acid at the N-terminal position: pyroglutamate” value is listed as less than 5.6%. The “binding value, binding Aβ1–42 monomers” value on Aβ1–42 monomers (setting [5]) was 0.49. For the same compound, the “binding value, binding Aβ1–42 fibrils” value on Aβ1–42 fibrils [3] (setting [6]) stood at 0.90.
Regarding “PSHYRHISPAQKK[^19F]ϕ [[^19F]-ACI-89-Kϕ, fluorinated ϕ-labeled ACI-89]”, in data set [4] (0.01 mg/ml ϕ-labeled compound, 2 h, 10 µm cryostat sections, fluorescence microscopy), the “staining / recognition of Aβ plaques” value was “readily recognized amyloid plaques”. Moreover, the “overlay with 6E10 anti-Aβ staining” value in data set [4] (co-staining with 6E10 (2 µg/ml) and DAPI, triple overlay) is given as “good overlap with 6E10 Aβ staining”. In addition, the “staining pattern” value in data set [4] (fluorescence microscopy) was “more diffuse and comparable to the staining of 6E10 Aβ antibody”. The “binding value, binding Aβ1–42 monomers” value at Aβ1–42 monomers (value of one single experiment only) is listed as “*1.19”. Also, at Aβ1–42 fibrils [3], the “ELISA binding to Aβ1–42” value is recorded as “bound well to Aβ1–42 fibrils”. Further, the “binding value, binding Aβ1–42 fibrils” value at Aβ1–42 fibrils [3] (10 µg/ml compound, value of one single experiment only) was “*1.86”.
With “ZSFYRHISPAQVKϕ [ACI-84-Kϕ, ϕ-labeled ACI-80 derivative, Q1Z and H3F]”, at Aβ1–42 monomers (ACI-80-Kϕ = 100), the “% binding relative to ACI-80-Kϕ, Aβ1–42 monomers” value stood at 63%. Moreover, the “binding value, binding Aβ1–42 monomers” value at Aβ1–42 monomers (setting [5]) was determined as 0.31. On Aβ1–42 fibrils [3], the “ELISA binding to Aβ1–42” value is “reduced”. Besides, the “% binding relative to ACI-80-Kϕ, Aβ1–42 fibrils” value at Aβ1–42 fibrils [3] (10 µg/ml compound, ACI-80-Kϕ = 100) was determined as 64%. Further, on Aβ1–42 fibrils [3] (setting [6]), the “binding value, binding Aβ1–42 fibrils” value was found to be 0.58.
